# Values of other authors, collected in article PMC7575488, “Phase 1 dose-escalation study of a novel oral PI3K/mTOR dual inhibitor, LY3023414, in patients with cancer” (Investigational New Drugs, 2020).
# Conditions: cited from earlier work; for Stomatitis, mucositis, and mouth sores: clinical studies with mTOR inhibitors
SMILES,"Stomatitis, mucositis, and mouth sores","Incidence of ILD (Japan, ref interim report on surveillance of everolimus-induced ILD in Japan)"
CO[C@H]1C[C@@H]2CC[C@@H](C)[C@@](O)(O2)C(=O)C(=O)N2CCCC[C@H]2C(=O)O[C@H]([C@H](C)C[C@@H]2CC[C@@H](OP(C)(C)=O)[C@H](OC)C2)CC(=O)[C@H](C)/C=C(\C)[C@@H](O)[C@@H](OC)C(=O)[C@H](C)C[C@H](C)/C=C/C=C/C=C/1C [deforolimus],78%,
CO[C@H]1C[C@@H]2CC[C@@H](C)[C@@](O)(O2)C(=O)C(=O)N2CCCC[C@H]2C(=O)O[C@H]([C@H](C)C[C@@H]2CC[C@@H](OCCO)[C@H](OC)C2)CC(=O)[C@H](C)/C=C(\C)[C@@H](O)[C@@H](OC)C(=O)[C@H](C)C[C@H](C)/C=C/C=C/C=C/1C [everolimus],41%,17.4%
